Converted amounts (≈) assume the structure as drawn. “Also recorded” adds a separate entry of the source.
Legend:
[1] = test system: HeLa cells; assay: MTT antiproliferative assay, HeLa; format: cell-based, human; conditions: for inhibition at 10 µM / inhibition at 30 µM: Homo sapiens, HeLa, 72 h, values <20% considered negligible, read-out: Growth inhibition (%) ± SEM, HeLa; for Antiproliferative effect on HeLa, in words: 10 and 30 μM
Procedure, shortened: (§1)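 Seeding: 5000 cells/well, overnight. Treatment: compounds added at 10 or 30 μM, 72 h under standard culture conditions. Detection: MTT for 4 h, then DMSO dissolution of crystals with shaking at 37 °C for 60 min and reading at 545 nm. Cisplatin served as reference.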

[2] = test system: SiHa cells; assay: MTT antiproliferative assay, SiHa; format: cell-based, human; conditions: for inhibition at 10 µM / inhibition at 30 µM: Homo sapiens, SiHa, 72 h, values <20% considered negligible, read-out: Growth inhibition (%) ± SEM, SiHa
Procedure, shortened: as §1

[3] = test system: MCF-7 cells; assay: MTT antiproliferative assay, MCF-7; format: cell-based, human; conditions: for inhibition at 10 µM / inhibition at 30 µM: Homo sapiens, 72 h, values <20% considered negligible, read-out: Growth inhibition (%) ± SEM, MCF-7; for inhibition at 10 µM: MCF7, 10 μM; for inhibition at 30 µM: MCF7, 30 μM; for Antiproliferative effect / selectivity on MCF-7, in words: 10 and 30 μM
Procedure, shortened: as §1

[4] = test system: A2780 cells; assay: MTT antiproliferative assay, A2780; format: cell-based, human; conditions: for inhibition at 10 µM / inhibition at 30 µM: Homo sapiens, 72 h, values <20% considered negligible, read-out: Growth inhibition (%) ± SEM, A2780; for inhibition at 10 µM: A2780, 10 μM; for inhibition at 30 µM: A2780, 30 μM
Procedure, shortened: as §1

[5] = test system: NIH/3T3 fibroblasts; assay: MTT assay on fibroblasts (selectivity); format: cell-based, murine; conditions: Mus musculus, 72 h, values <20% considered negligible, read-out: Growth inhibition (%) ± SEM, NIH/3T3; for inhibition at 10 µM: NIH3T3, 10 μM; for inhibition at 30 µM: NIH3T3, 30 μM
Procedure, shortened: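 Cells grown in Eagle's minimal essential medium with 10% FBS at 37 °C, 5% CO2 were seeded at 5000/well, left overnight, then exposed to compounds at 10 μM and 30 μM for 72 h. Growth inhibition was read by MTT (4 h), formazan dissolved in DMSO, absorbance at 545 nm.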

[6] = Kinetic aqueous solubility; format: physicochemical; conditions: for solubility kinetic at 2 h: phosphate buffered saline with 5% DMSO, aqueous with cosolvent or surfactant or cyclodextrin, kinetic from dmso stock, after 2 h, at 37 °C in PBS, pH 7.4, 5% DMSO, target concentration 500 μM, mean ± S.E.M, n = 3; for Kinetic aqueous solubility, category in words: PBS pH 7.4, 37 °C, 2 h
Procedure, shortened: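 Kinetic solubility: filtrates quantified by HPLC-DAD-MS against 5–500 μM calibration, target concentration 500 μM. PAMPA-GI: pH 6.5 phosphate donor, pH 7.4 PBS/5% DMSO acceptor, phosphatidylcholine/cholesterol 2:1 in dodecane membrane, 4 h at 37 °C; Pe and membrane retention calculated from HPLC-DAD-MS concentrations.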

SMILES	inhibition at 10 µM [1]	inhibition at 30 µM [1]	inhibition at 10 µM [2]	inhibition at 30 µM [2]	inhibition at 10 µM [3]	inhibition at 30 µM [3]	inhibition at 10 µM [4]	inhibition at 30 µM [4]	inhibition at 10 µM [5]	inhibition at 30 µM [5]	solubility kinetic at 2 h [6]	melting point	Antiproliferative effect on HeLa, in words [1]	Antiproliferative effect / selectivity on MCF-7, in words [3]	Kinetic aqueous solubility, category in words [6]	Antiproliferative effect on SiHa, in words ([2]; 10 and 30 μM)	Antiproliferative effect on A2780, in words ([4]; 10 and 30 μM)
COC(=O)[C@]1(C)CCC[C@@]2(C)C3CC[C@]4(O)C[C@@]3(CCC21)[C@@H](O)[C@]4(O)CNCc1ccccc1 (stereo partly drawn) [Compound 5, (4R,6aR,7R,8R,9S,11bS)-Methyl 8-((Benzylamino)methyl)-7,8,9-trihydroxy-4,11b-dimethyltetradecahydro-6a,9-methanocyclohepta[a]naphthalene-4-carboxylate]	< 20%	95.77 ± 0.26%	< 20%	< 20%	59.6 ± 2.73%	96.42 ± 0.27%	30.4 ± 2.48%	97.15 ± 0.21%	< 20%	101.1 ± 0.43%	291 ± 35.5 µM (≈ 137 µg/mL)	119 to 122 °C					
CC[C@H](NC[C@@]1(O)[C@H](O)[C@@]23CCC4[C@@](C)(CCC[C@@]4(C)C(=O)OC)C2CC[C@]1(O)C3)c1ccccc1 (stereo partly drawn) [Compound 16, (4R,6aR,7R,8R,9S,11bS)-Methyl 7,8,9-Trihydroxy-4,11b-dimethyl-8-((((S)-1-phenylpropyl)amino)methyl)tetradecahydro-6a,9-methanocyclohepta[a]naphthalene-4-carboxylate]	53.5 ± 1.99%	98.33 ± 0.32%	< 20%	96.73 ± 0.65%	80.7 ± 2.37%	97.1 ± 0.23%	48.3 ± 2.17%	96.99 ± 0.19%	< 20%	95.12 ± 0.41%	89.9 ± 8.5 µM (≈ 44.9 µg/mL)	140 to 143 °C	moderate inhibition	higher selectivity; also recorded: performed best	moderate		
COC(=O)[C@]1(C)CCC[C@@]2(C)C3CC[C@]4(O)C[C@@]3(CCC21)[C@@H](O)[C@]4(O)CN(C)Cc1ccccc1 (stereo partly drawn) [Compound 6, (4R,6aR,7R,8R,9S,11bS)-Methyl 8-((Benzyl(methyl)amino)methyl)-7,8,9-trihydroxy-4,11b-dimethyltetradecahydro-6a,9-methanocyclohepta[a]naphthalene-4-carboxylate]	< 20%	< 20%	< 20%	< 20%	< 20%	51.7 ± 2.54%	25.7 ± 2.7%	63.7 ± 1.98%	< 20%	89.3 ± 2.62%	114 ± 16 µM (≈ 55.5 µg/mL)	162 to 166 °C					
COC(=O)[C@]1(C)CCC[C@@]2(C)C3CC[C@]4(O)C[C@@]3(CCC21)[C@@H](O)[C@]4(O)CNCc1ccc(F)cc1 (stereo partly drawn) [Compound 9, (4R,6aR,7R,8R,9S,11bS)-Methyl 8-(((4-Fluorobenzyl)amino)methyl)-7,8,9-trihydroxy-4,11b-dimethyltetradecahydro-6a,9-methanocyclohepta[a]naphthalene-4-carboxylate]	42.5 ± 1.42%	96.8 ± 0.74%	54.6 ± 3.42%	95.17 ± 0.37%	96.4 ± 0.47%	96.19 ± 0.65%	45.6 ± 3.13%	96.97 ± 0.29%	25.9 ± 0.94%	92.4 ± 1.01%	42.1 ± 10.8 µM (≈ 20.6 µg/mL)	195 to 197 °C		strong and selective antiproliferative effect; also recorded: performed best	moderate	modest inhibition	
CC[C@@H](NC[C@@]1(O)[C@H](O)[C@@]23CCC4[C@@](C)(CCC[C@@]4(C)C(=O)OC)C2CC[C@]1(O)C3)c1ccccc1 (stereo partly drawn) [Compound 15, (4R,6aR,7R,8R,9S,11bS)-Methyl 7,8,9-Trihydroxy-4,11b-dimethyl-8-((((R)-1-phenylpropyl)amino)methyl)tetradecahydro-6a,9-methanocyclohepta[a]naphthalene-4-carboxylate]	63.6 ± 1.54%	97.25 ± 0.5%	22.4 ± 1.42%	95.67 ± 0.76%	91 ± 1.52%	96.47 ± 0.26%	50 ± 2.99%	96.64 ± 0.24%	21 ± 0.96%	94.23 ± 0.31%	145 ± 28.2 µM (≈ 72.5 µg/mL)	138 to 141 °C	modest inhibition	strong and selective antiproliferative effect; also recorded: performed best			modest inhibition
